Reference: the NIST ThermoML archive (doi:10.1021/je800889y)
Numbers after ± are expanded uncertainties.

Experiment: excess molar enthalpy (molar enthalpy of mixing); xn = mol fraction of the nth substance listed
Conditions: 101.3 kPa, Liquid, Flow calorimetry

CCOC(=O)CC(C)=O [ethyl 3-oxobutanoate] + CCOC(C)=O
excess molar enthalpy [kJ/mol]
Conditions	298.15 K	313.15 K	328.15 K	338.15 K	348.15 K
x1 = 0.1005	0.025 ± 0.001	0.025 ± 0.001	0.021 ± 0.001	0.019 ± 0.001	0.017 ± 0.001
x1 = 0.1995	0.041 ± 0.001	0.042 ± 0.001	0.035 ± 0.001	0.033 ± 0.001	0.029 ± 0.001
x1 = 0.2996	0.052 ± 0.002	0.053 ± 0.002	0.044 ± 0.001	0.041 ± 0.001	0.036 ± 0.001
x1 = 0.3495	0.054 ± 0.002	0.057 ± 0.002	0.047 ± 0.002	0.044 ± 0.001	0.039 ± 0.001
x1 = 0.3995	0.056 ± 0.002	0.059 ± 0.002	0.048 ± 0.002	0.046 ± 0.001	0.041 ± 0.001
x1 = 0.4496	0.057 ± 0.002	0.061 ± 0.002	0.049 ± 0.002	0.047 ± 0.002	0.042 ± 0.001
x1 = 0.4998	0.056 ± 0.002	0.061 ± 0.002	0.048 ± 0.002	0.046 ± 0.001	0.042 ± 0.001
x1 = 0.55	0.055 ± 0.002	0.06 ± 0.002	0.047 ± 0.002	0.045 ± 0.001	0.041 ± 0.001
x1 = 0.6001	0.052 ± 0.002	0.058 ± 0.002	0.044 ± 0.001	0.043 ± 0.001	0.039 ± 0.001
x1 = 0.6502	0.049 ± 0.002	0.056 ± 0.002	0.041 ± 0.001	0.041 ± 0.001	0.038 ± 0.001
x1 = 0.7001	0.046 ± 0.001	0.052 ± 0.002	0.037 ± 0.001	0.037 ± 0.001	0.035 ± 0.001
x1 = 0.7994	0.035 ± 0.001	0.042 ± 0.001	0.027 ± 0.001	0.029 ± 0.001	0.027 ± 0.001
x1 = 0.9004	0.019 ± 0.001	0.028 ± 0.001	0.018 ± 0.001	0.017 ± 0.001	0.017 ± 0.001

CCOC(=O)CC(C)=O [ethyl 3-oxobutanoate] + CCCCO
excess molar enthalpy [kJ/mol]
Conditions	298.15 K	313.15 K	328.15 K	338.15 K	348.15 K
x1 = 0.1003	0.913 ± 0.02	1 ± 0.022	1.12 ± 0.025	1.14 ± 0.025	1.16 ± 0.026
x1 = 0.2002	1.41 ± 0.031	1.56 ± 0.034	1.81 ± 0.039	1.86 ± 0.04	1.9 ± 0.041
x1 = 0.3	1.71 ± 0.037	1.94 ± 0.042	2.25 ± 0.048	2.31 ± 0.049	2.35 ± 0.05
x1 = 0.3502	1.81 ± 0.039	2.07 ± 0.044	2.38 ± 0.051	2.45 ± 0.052	2.49 ± 0.053
x1 = 0.3999	1.88 ± 0.04	2.15 ± 0.046	2.47 ± 0.053	2.53 ± 0.054	2.58 ± 0.055
x1 = 0.45	1.92 ± 0.041	2.22 ± 0.048	2.51 ± 0.054	2.58 ± 0.055	2.61 ± 0.056
x1 = 0.5005	1.94 ± 0.041	2.22 ± 0.048	2.51 ± 0.054	2.56 ± 0.055	2.59 ± 0.055
x1 = 0.5501	1.92 ± 0.041	2.19 ± 0.047	2.47 ± 0.053	2.51 ± 0.053	2.53 ± 0.054
x1 = 0.5999	1.88 ± 0.04	2.12 ± 0.045	2.37 ± 0.051	2.42 ± 0.052	2.42 ± 0.052
x1 = 0.6499	1.8 ± 0.039	2.02 ± 0.043	2.25 ± 0.048	2.27 ± 0.049	2.27 ± 0.049
x1 = 0.7	1.69 ± 0.036	1.86 ± 0.04	2.06 ± 0.044	2.08 ± 0.045	2.08 ± 0.045
x1 = 0.8005	1.34 ± 0.029	1.42 ± 0.031	1.55 ± 0.034	1.55 ± 0.034	1.56 ± 0.034
x1 = 0.9007	0.767 ± 0.018	0.799 ± 0.018	0.841 ± 0.019	0.842 ± 0.019	0.847 ± 0.02

CCOC(=O)CC(C)=O [ethyl 3-oxobutanoate] + O
excess molar enthalpy [kJ/mol]
Conditions	298.15 K	313.15 K	328.15 K	338.15 K	348.15 K
x1 = 0.1502	0.175 ± 0.005	0.276 ± 0.007	0.386 ± 0.009	0.472 ± 0.011	0.558 ± 0.013
x1 = 0.2994	0.428 ± 0.01	0.597 ± 0.013	0.783 ± 0.017	0.929 ± 0.02	1.09 ± 0.024
x1 = 0.4491	0.684 ± 0.015	0.92 ± 0.02	1.19 ± 0.026	1.4 ± 0.03	1.62 ± 0.035
x1 = 0.6014	0.923 ± 0.02	1.23 ± 0.027	1.57 ± 0.034	1.82 ± 0.039	1.93 ± 0.041
x1 = 0.6499	–	–	–	1.79 ± 0.038	1.89 ± 0.04
x1 = 0.7001	1.08 ± 0.024	1.4 ± 0.03	1.58 ± 0.034	1.7 ± 0.036	1.79 ± 0.038
x1 = 0.7514	1.13 ± 0.024	1.32 ± 0.028	1.47 ± 0.032	1.56 ± 0.034	1.61 ± 0.035
x1 = 0.797	–	–	–	1.38 ± 0.03	1.41 ± 0.031
x1 = 0.8474	0.87 ± 0.019	0.998 ± 0.022	1.07 ± 0.024	–	–
x1 = 0.9034	0.6 ± 0.014	0.696 ± 0.016	0.736 ± 0.017	0.778 ± 0.018	0.786 ± 0.018
x1 = 0.9496	0.32 ± 0.009	0.385 ± 0.011	0.39 ± 0.011	–	–

CCOC(=O)CC(C)=O [ethyl 3-oxobutanoate] + CCCCCO
excess molar enthalpy [kJ/mol]
Conditions	298.15 K	313.15 K	328.15 K	338.15 K	348.15 K
x1 = 0.0998	0.913 ± 0.02	1.05 ± 0.023	1.12 ± 0.025	1.18 ± 0.026	1.18 ± 0.026
x1 = 0.1996	1.38 ± 0.03	1.67 ± 0.036	1.85 ± 0.04	1.92 ± 0.042	1.93 ± 0.042
x1 = 0.3006	1.71 ± 0.037	2.05 ± 0.044	2.3 ± 0.049	2.39 ± 0.051	2.39 ± 0.051
x1 = 0.3505	1.81 ± 0.039	2.18 ± 0.047	2.46 ± 0.052	2.54 ± 0.054	2.54 ± 0.054
x1 = 0.4001	1.88 ± 0.04	2.27 ± 0.049	2.54 ± 0.054	2.63 ± 0.056	2.64 ± 0.056
x1 = 0.4504	1.93 ± 0.041	2.32 ± 0.05	2.6 ± 0.055	2.68 ± 0.057	2.69 ± 0.057
x1 = 0.5003	1.95 ± 0.042	2.33 ± 0.05	2.6 ± 0.056	2.68 ± 0.057	2.69 ± 0.057
x1 = 0.5498	1.94 ± 0.042	2.31 ± 0.049	2.56 ± 0.055	2.63 ± 0.056	2.64 ± 0.056
x1 = 0.6	1.9 ± 0.041	2.26 ± 0.048	2.49 ± 0.053	2.54 ± 0.054	2.55 ± 0.054
x1 = 0.6497	1.84 ± 0.04	2.16 ± 0.046	2.35 ± 0.05	2.4 ± 0.051	2.4 ± 0.051
x1 = 0.7002	1.74 ± 0.038	2.02 ± 0.043	2.18 ± 0.047	2.2 ± 0.047	2.21 ± 0.047
x1 = 0.7995	1.43 ± 0.031	1.59 ± 0.035	1.67 ± 0.036	1.67 ± 0.036	1.67 ± 0.036
x1 = 0.9004	0.851 ± 0.019	0.898 ± 0.021	0.928 ± 0.021	0.93 ± 0.021	0.933 ± 0.021

CCOC(=O)CC(C)=O [ethyl 3-oxobutanoate] + CCC(C)O
excess molar enthalpy [kJ/mol]
Conditions	298.15 K	313.15 K	328.15 K	338.15 K	348.15 K
x1 = 0.1002	0.98 ± 0.022	1.13 ± 0.025	1.2 ± 0.027	1.23 ± 0.027	1.23 ± 0.027
x1 = 0.1997	–	1.76 ± 0.038	1.94 ± 0.042	1.97 ± 0.043	1.98 ± 0.043
x1 = 0.2008	1.52 ± 0.033	–	–	–	–
x1 = 0.2998	–	2.16 ± 0.046	2.38 ± 0.051	2.44 ± 0.052	2.44 ± 0.052
x1 = 0.3009	1.84 ± 0.04	–	–	–	–
x1 = 0.3999	–	2.38 ± 0.051	2.61 ± 0.056	2.67 ± 0.057	2.67 ± 0.057
x1 = 0.4011	2.02 ± 0.043	–	–	–	–
x1 = 0.45	–	2.44 ± 0.052	2.64 ± 0.056	2.7 ± 0.058	2.71 ± 0.058
x1 = 0.4512	2.06 ± 0.044	–	–	–	–
x1 = 0.5004	–	2.44 ± 0.052	2.63 ± 0.056	2.68 ± 0.057	2.69 ± 0.057
x1 = 0.5017	2.08 ± 0.045	–	–	–	–
x1 = 0.5499	–	2.41 ± 0.051	2.58 ± 0.055	2.61 ± 0.056	2.62 ± 0.056
x1 = 0.5512	2.06 ± 0.044	–	–	–	–
x1 = 0.5995	–	2.32 ± 0.05	2.48 ± 0.053	2.5 ± 0.053	2.51 ± 0.054
x1 = 0.6009	2.01 ± 0.043	–	–	–	–
x1 = 0.6493	–	2.21 ± 0.047	2.33 ± 0.05	2.33 ± 0.05	2.34 ± 0.05
x1 = 0.6507	1.93 ± 0.041	–	–	–	–
x1 = 0.7007	1.8 ± 0.039	2.03 ± 0.044	2.12 ± 0.045	2.12 ± 0.046	2.12 ± 0.046
x1 = 0.8005	1.42 ± 0.031	1.55 ± 0.034	1.59 ± 0.035	1.59 ± 0.035	1.6 ± 0.035
x1 = 0.8999	0.805 ± 0.018	0.872 ± 0.02	0.882 ± 0.02	0.885 ± 0.02	0.889 ± 0.02
